Test results: paper PMC9495829, “Quercetin Is a Novel Inhibitor of the Choline Kinase of Streptococcus pneumoniae” (Antibiotics, 2022)

Biological target: T1, choline kinase of Streptococcus pneumoniae (sChoK) (Streptococcus pneumoniae, UniProt Q8DPI4)
T1 construct: gene pck
Assay: colorimetric choline kinase assay (IC50); PK/LDH kinetics on purified recombinant sChoK (Ki […] +/- […], unit inferred)
Type: biochemical

T1 sequence (Q8DPI4 entry or part of it): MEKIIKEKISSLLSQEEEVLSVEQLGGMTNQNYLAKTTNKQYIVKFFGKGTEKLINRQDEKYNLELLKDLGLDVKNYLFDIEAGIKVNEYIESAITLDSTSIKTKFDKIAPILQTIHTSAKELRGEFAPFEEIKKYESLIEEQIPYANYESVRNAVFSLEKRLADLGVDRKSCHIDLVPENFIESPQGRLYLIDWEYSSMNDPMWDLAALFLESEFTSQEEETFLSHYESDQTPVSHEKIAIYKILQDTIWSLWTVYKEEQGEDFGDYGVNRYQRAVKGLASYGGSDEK

Which IC50 does the source give for `O=c1c(O)c(-c2ccc(O)c(O)c2)oc2cc(O)cc(O)c12` [quercetin] here?
The IC50 was 6.18 µM.
